Here are results for seven compounds from patent publication US4791135A (priority 1987, dated 1988).

The test system of data set [1] is Plasmodium berghei. The experiment in a line: In vivo suppressive blood schizonticidal and curative activity in infected mice, 60 days survival. On the set-up: species or system Plasmodium berghei (in mice). The following applies: for Number active (A): active = survival time greater than twice control mice (12 to 14 days); for Number of Cures: cured = surviving 60 days. As for the experimental part: The suppressive blood schizonticidal and curative activities of artemisinin, artelinic acid and artesunic acid, were measured in a test where mice were infected with 5.98×10^5 Plasmodium berghei parasitized cells intraperitoneally on day zero. […] The dose levels of compounds given were 640, 160, and 40 mg/kg/day. Blood films were taken on days 6, 13, and 20. Blood schizonticidal activity was determined by monitoring blood films for the appearance of parasites and for extended survival times compared to infected untreated controls. Mice surviving 60 days were considered cured. The infected untreated control mice (negative controls) died on either day 6 or 7. Compounds were considered active when the survival time of the treated mice was greater than twice the control mice, i.e., 12 to 14 days.

Data set [2] in a line: Stability in 5% NaHCO3/D2O at room temperature, monitored by PMR. Format: physicochemical. On the procedure:
(§1) To a 5 mm NMR tube containing 10 mg of sample was added 0.5 mL of 2.5% K2 CO3 /D2 O solution. The initial spectrum of the solution was taken within 5 minutes, and again at intervals thereafter. The extent of hydrolysis was estimated by the following equation:
(§2) % Decomposition=(B/2A+B)×100
(§3) where A=integration of H-10 (5.80 ppm, d, J=10.8 Hz, 1H) and H-12 (5.71 ppm, s, 1H) of artesunate; B=integration of the singlet at 2.42 ppm for the potassium succinate formed. With time, the intensity of potassium succinate (2.42 ppm) signal increases, while that of H-10 and H-12 of artesunate decreases. The stability study of compound 1 in 5% NaHCO3 /D2 O was also carried out by the same procedure.

The conditions of data set [3]: background, cited from earlier work.
The nature of data set [4]: physchem. The format is physicochemical. As for the experimental part: To compare the relative stability of the new agents vs. artesunic acid, stability studies of compound 8d and compound 1 were conducted in 2.5% K2 CO3 /D2 O solution at room temperature and were monitored by PMR. [drawing 8]
as §1, §2, §3

Data set [5] deals with cerebral malaria. The following applies: background; cited from earlier work.
Data set [6] relates to Plasmodium falciparum D-6 (Sierra Leone clone) and W-2 (Indochina clone). Description: In vitro antimalarial activity against both clones, summarised in words. Format: cell-based. The following applies: for cross-resistance to mefloquine, chloroquine, pyrimethamine, sulfadoxine, quinine: D-6 and W-2 clones. On the procedure:
(§4) The former clone is a strain that is resistant to mefloquine and the latter, to chloroquine, pyrimethamine, sulfadoxine, and quinine.
(§5) In vitro assays were conducted using a modification of the semiautomated microdilution technique of Desjardins et al., Antimicrob. Agents Chemoether., 1979, Volume 16, page 710 and Milhous et al., Antimicrob. Agents Chemother., 1985, Volume 27, page 525. Two P. falciparum malaria parasite clones, designated as Indochina (W-2) and Sierra Leone (D-6), were utilized in susceptibility testing. They were derived by direct visualization and micromanipulation from patient isolates obtained by the Centers for Disease Control, Atlanta, GA in 1980 and 1982, respectively. The patients had acquired infections either in Vietnam or Sierra Leone. The Indochina clone is resistant to the antimalarials chloroquine, sulfadoxine, pyrimethamine, and quinine, whereas the Sierra Leone, is resistant to mefloquine but susceptible to chloroquine, quinine, sulfadoxine, and pyrimethamine. Test compounds were initially dissolved in DMSO and 70% ethanol and diluted in RPMI 1640 culture medium with 10% human plasma to 400 fold. Drugs were subsequently further diluted using the Cetus Pro/Pette (Perkin-Elmer Corp., Norwalk, CT) over a range of 1.56-100×10^-9 molar. Parasite inocula (at 0.5% parasitemia and a 1% hematocrit) were incubated for 24 hours and added to equimolar concentrations of each test compound prior to the addition of ^3 H-hypoxanthine. After a further incubation of 18 hours, particulate matter was harvested from each microtiter well using an automated cell harvester (Skatron, Inc., Sterling, VA). Uptake of ^3 H-hypoxanthine was measured using a scintillation spectrophotometer (Model LS3801, Beckman Instruments, Irvine, CA). Concentration-response data were analyzed by nonlinear regression and the IC50 's (50% inhibitory concentrations) for each compound were calculated.

Data set [7] deals with malaria. To be noted: background; cited from earlier work.
Data set [8] relates to P. falciparum Indochina (W-2) clone. The experiment in a line: In vitro antimalarial susceptibility, 3H-hypoxanthine uptake, Indochina (W-2) clone. The format is cell-based, Plasmodium falciparum. The following applies: for IC50: Plasmodium falciparum. As for the experimental part: as §4
as §5, with “CA).” for “CA). Concentration-response data were analyzed by nonlinear regression and the IC50 's (50% inhibitory concentrations) for each compound were calculated.”

The test system of data set [9] is P. falciparum Sierra Leone (D-6) clone. The experiment in a line: In vitro antimalarial susceptibility, 3H-hypoxanthine uptake, Sierra Leone (D-6) clone. The format is cell-based, Plasmodium falciparum. As for the experimental part: as §4
as §5, with “CA).” for “CA). Concentration-response data were analyzed by nonlinear regression and the IC50 's (50% inhibitory concentrations) for each compound were calculated.”

For data set [10], the system named is malaria. To be noted: background, reported; cited from earlier work.
Data set [11] is described as follows: Stability of the free acid (PMR spectrum on standing). Format: physicochemical. To be noted: gradual changes in PMR spectrum on standing. An excerpt: Hydrolysis of the ester (compound 5a) with 2.5% KOH/MeOH gave the corresponding potassium salt which was purified by reverse phase chromatography. Conversion of the salt (compound 7a) to the free acid (compound 8a) was achieved by acidification with acetic acid. The free acid appears to be unstable, as evidenced by gradual changes seen in its PMR spectrum on standing. This may be due to the instability of the acetal or ketal functions of the molecule under acidic conditions. In contrast, compounds 7b through 7d were smoothly converted to their corresponding stable free acids (compounds 8b-d).

Data set [12] in a line: Water solubility. The format is physicochemical.
Setting [13] is: 40 mg/kg/day SC x 3 days, 5% NaHCO3.
Setting [14] is: 160 mg/kg/day SC x 3 days, 5% NaHCO3.
Setting [15] is: 640 mg/kg/day SC x 3 days, 5% NaHCO3.
Where [16] appears, read: 40 mg/kg/day SC x 3 days, peanut oil.

What is called IC50 is the midpoint of a concentration-inhibition curve.

Converted amounts (≈) assume the structure as drawn. Like-named read-outs stand apart in the source and are kept apart here.

In the case of `C[C@H]1[C@H](OC(=O)CCC(=O)O)O[C@@H]2O[C@@]3(C)CC[C@H]4[C@H](C)CC[C@@H]1[C@@]24OO3` [Compound 1, artesunic acid], the figures for the “Number active (A)” value in [1] (setting [13]) and in [1] (setting [14]) were 2/5 and 3/5, respectively. Also, the “Number of Cures” value is recorded as 0/5 in data set [1] (setting [13]), 0/5 in data set [1] (setting [14]) and 5/5 in data set [1] (setting [15]). Also, the “half-life of hydrolysis (estimated)” value in data set [2] (5% NaHCO3) was “about 4.5 days”; in data set [4] (2.5% K2CO3 solution) it was below 1 days. Moreover, the “rate of hydrolysis compared with 2.5% K2CO3/D2O” value in data set [2] (5% NaHCO3/D2O vs 2.5% K2CO3/D2O) is on record as “slower”. Also, the degraded at 4 h in data set [2] (5% NaHCO3/D2O, room temperature, 4 hours, read-out: % Hydrolysis) is below 5%. In addition, the degraded at 48 h was 22% in [2] (5% NaHCO3/D2O, room temperature, 2 days, read-out: % Hydrolysis) and 75% in data set [4] (2.5% k2co3/d2o). The degraded at 72 h in data set [2] (5% NaHCO3/D2O, room temperature, 3 days, read-out: % Hydrolysis) was 33%; in [4] (2.5% k2co3/d2o), 91%. For the same compound, the degraded at 96 h in data set [2] (5% NaHCO3/D2O, room temperature, 4 days, read-out: % Hydrolysis) is 45%; in [4] (2.5% k2co3/d2o) it was 98%. For the same compound, the degraded at 192 h in [2] (5% NaHCO3/D2O, room temperature, 8 days, read-out: % Hydrolysis) was 75%. Further, in [2] (5% NaHCO3/D2O, room temperature, 9 days, read-out: % Hydrolysis), the degraded at 216 h amounted to 82%. For the same compound, in [3] (listed as compound 1), the water solubility entry is “water-soluble”. This compound also had a degraded at 1.5 h in [4] (2.5% k2co3/d2o) of 20%. Moreover, the degraded at 24 h in [4] (2.5% k2co3/d2o) was 60%.
For the compound `C[C@@H]1CC[C@H]2[C@@H](C)C(=O)O[C@@H]3O[C@@]4(C)CC[C@@H]1[C@]32OO4` [Compound 3, Artemisinin], in [1] (40 mg/kg, peanut oil, SC), the Blood films positive is 3 of 5. The “Number active (A)” value in [1] (setting [16]) is reported as 3/5. Also, the “Number of Cures” value in data set [1] (setting [16]) is reported as 2/5; in data set [1] (160 mg/kg/day SC x 3 days, peanut oil), 5/5; in data set [1] (640 mg/kg/day SC x 3 days, peanut oil), 5/5. For the same compound, the Blood films result in data set [1] (160 mg/kg, peanut oil, SC) is on record as “negative”; in data set [1] (640 mg/kg, peanut oil, SC) it was “negative”. Moreover, the “efficacy against cerebral malaria in man” value in data set [5] is listed as “proven efficacious against cerebral malaria in man”. Moreover, the “cross-resistance to mefloquine, chloroquine, pyrimethamine, sulfadoxine, quinine” value in data set [6] was “not cross-resistant”. Also, the cross-resistance to chloroquine result in data set [7] was “Neither artemisinin nor dihydroartemisinin exhibit cross-resistance to chloroquine”. Moreover, the IC50 in data set [8] worked out at 0.66 ng/mL (≈ 2.34 nM); in data set [9] (Plasmodium falciparum) it was 2.93 ng/mL (≈ 10.4 nM).
With `CC1CCC2C(C)C(OCc3ccc(C(=O)O)cc3)OC3OC4(C)CCC1C32OO4` (stereo not shown) [Compound 8d, Para-(10-Dihydroartemisininoxy)methylbenzoic Acid], the “Number of Cures” value in [1] (setting [13]) is 5/5. The “Number of Cures” value in data set [1] (setting [14]) is recorded as 5/5. In addition, in data set [1] (setting [15]), the “Number of Cures” value is on record as 5/5. Further, the detectable change entry in [4] (2.5% K2CO3/D2O, room temperature, after 35 days) is recorded as “no detectable change”. In [4] (2.5% k2co3/d2o), this compound came in with a degraded at 1.5 h of 0%, a degraded at 24 h of 0%, a degraded at 48 h of 0% and a degraded at 72 h of 0%. In data set [4] (2.5% k2co3/d2o), this compound gave a degraded at 96 h of 0% and a degraded at 1608 h below 3%. Besides, the “In vitro antimalarial activity IC50, Indochina Clone (W-2)” value in data set [8] was 1.38 ng/mL. Also, the “In vitro antimalarial activity IC50, Sierra Leone (D-6)” value in data set [9] was 4.07 ng/mL.
Turning to `C[C@H]1[C@H](OC(=O)CCC(=O)O)O[C@@H]2O[C@@]3(C)CC[C@H]4[C@H](C)CC[C@@H]1[C@@]24OO3` [Sodium artesunate], in data set [3], the water solubility result is “water soluble”.
With `C[C@@H]1CC[C@H]2[C@@H](C)C(O)O[C@@H]3O[C@@]4(C)CC[C@@H]1[C@]32OO4` (stereo partly shown) [Compound 2, Dihydroartemisinin], the “efficacy against cerebral malaria in man” value in [5] is “proven efficacious against cerebral malaria in man”. Further, the “cross-resistance to mefloquine, chloroquine, pyrimethamine, sulfadoxine, quinine” value in data set [6] was “not cross-resistant”. The cross-resistance to chloroquine result in data set [7] is listed as “Neither artemisinin nor dihydroartemisinin exhibit cross-resistance to chloroquine”. In addition, in [10], the “therapeutic activity compared with its parent compound artemisinin” value is “more therapeutically active than its parent compound”.
Regarding `CC1CCC2C(C)C(OCC(=O)O)OC3OC4(C)CCC1C32OO4` (stereo not shown) [Compound 8a, 2-(10-Dihydroartemisininoxy)acetic acid], the “stability of free acid” value in [11] is on record as “unstable”.
For the compound `CC1CCC2C(C)C(OCc3ccc(C(=O)O)cc3)OC3OC4(C)CCC1C32OO4` (stereo not shown) [Compound 7d, Potassium p-(10-Dihydroartemisininoxy)methylbenzoate], the “in vitro antimalarial activity relative to parent compounds” value in data set [6] (in words, relative to artemisinin (3) or compounds 2 and 3) is reported as “comparable in vitro activity to artemisinin”. Also, the stability in solution result in [4] is “stable in solution”. This compound returned an IC50 in data set [8] of 0.92 ng/mL. The “In vitro antimalarial activity IC50, Sierra Leone (D-6)” value in data set [9] came to 1.74 ng/mL. Besides, the water solubility entry in [12] is “water soluble”.
